Patent US7413903B2, “Methods of regulating differentiation in stem cells” (ES Cell International PTE Ltd., priority 2002, dated 2008)

Tests used:
hES cells [1] = assay: GCTM-2 quantification (alkaline phosphatase-coupled secondary antibody, OD 405 nm); type: cell-based, human; conditions: for effect of inhibitor on the effect of PDGF and S1P on GCTM2 expression: 7 days, U0126, DMS 3 μM; for more GCMT2+ than the control cells / GCTM2 levels, PDGF isoform added with S1P: Example 1; for more GCMT2+ than the control cells: on MEF, 8 days, S1P 10 μM; for more GCMT2+ than the control cells / more GCMT2+ than the controls: serum-free; for more GCMT2+ than the controls: treated for 2 weeks
Text: hES-3 cells plated with MEF, were fixed in ethanol and immunostained with GCTM-2 and then with an alkaline phosphatase-coupled secondary antibody (Dako). The activity of alkaline phosphatase was detected by adding a solution of 4-nitrophenyl phosphate (Roche, Mannheim, Germany), followed by reading the optical density (OD) at 405 nm. In order to validate the technique as a relevant indicator of the proportion of GCTM-2 positive cells, standard curves were done with the teratocarcinoma cell line GCT27C4, known to express GCTM-2.
Cells were fixed in 100% ethanol and immunostained with GCTM-2 followed by alkaline phosphatase-coupled secondary antibodies (Dako). Alkaline phosphatase activity was detected by adding a solution of 4-nitrophenyl phosphate (Roche), and the concentration of the reaction product was determined by reading the optical density (OD) at 405 nm. In order to validate the technique as an accurate indicator of the proportion of GCTM-2 positive cells, standard curves were carried out with the embryonal carcinoma cell line GCT27C4, known to express GCTM-2 ^20.

hES cells [2] = assay: Direct observation of hES cell colonies in serum-free medium (spontaneous differentiation); type: cell-based, human; conditions: for colony morphology / spontaneous differentiation vs control: Example 1, PDGF 20 ng/ml; for colony morphology / spontaneous differentiation vs control / colony size, morphology / spontaneous differentiation vs controls: on MEF, serum-free; for colony morphology / spontaneous differentiation vs control / colony size, morphology / spontaneous differentiation vs controls / colony growth / differentiation vs control: LPA up to 50 μM; for colony size, morphology / spontaneous differentiation vs controls: Example 2, 2 weeks, PDGF-AB 20 ng/ml; for colony growth / differentiation vs control: 12 days
Description: (§1) hES-3 cells were cultured as previously described^1. The serum-free culture medium consisted of DMEM (without sodium pyruvate, glucose 4500 mg/l, Invitrogen, Mount Waverley, VIC, Australia) supplemented with insulin/transferrin/selenium 1%, β-mercaptoethanol 0.1 mM, NEAA 1%, glutamine 2 mM, Hepes 25 mM, penicillin 50 U/ml and streptomycin […] (all from Invitrogen). Medium was changed every 2 days and cells were passaged every week. S1P and dihydro-S1P were obtained from Biomol (Plymouth Meeting, Pa., USA) and were dissolved in methanol. LPA was obtained from Sigma (Castle Hill, NSW, Australia) and was dissolved in ethanol. Extemporaneous dilutions of all lipids were made in water containing 0.1% fatty acid-free bovine serum albumin (BSA) (Sigma). Human PDGF-AB, PDGF-AA, PDGF-BB were from PreproTech Inc. (Rocky Hill, N.J., USA). RT-PCR Experiments.
as §1, with “Media” for “Medium”, “USA).” for “USA) and were dissolved in methanol.”, “Australia).” for “Australia) and was dissolved in ethanol.”, “(Sigma). S1P and dihydro-S1P were used at […].” for “(Sigma).”, “USA) and were used at 20 ng/ml.” for “USA). RT-PCR Experiments.”
For direct observation, hES-3 cells were coated into 12-well plates (3 colonies per well), with or without mouse embryonic feeders (MEFs). The day following the plating, cells were incubated with the different agents in serum free medium containing insulin, transferring and selenium. Media was changed the 2nd day and then every 2 days.

hES cells [3] = assay: GCTM-2 / PCNA double immunostaining and cell counting of mechanically dissociated hES cells; type: cell-based, human; conditions: for percentage of cells GCTM2+: mechanically dissociated, PDGF 10 ng/ml
Description: In some experiments, hES-3 cells plated onto 8-well chamber slides, with or without MEF, were fixed in ethanol or paraformaldehyde (for PDGFR) the day after plating. In others, hES-3 cells were mechanically dissociated, in order to obtain a monolayer culture and then plated onto 8-well chamber slides without MEF and were fixed in ethanol 4 days after the first treatment. Immunostaining was performed using the following antibodies: anti human PDGFR-α or PDGFR-β(R&D Systems Inc.), GCTM-2, and/or PCNA (Chemicon, Boronia, VIC, Australia), TRA-1-60, Oct-4. Nuclei were evidenced by Hoechst-33342. Slides were mounted and observed by fluorescent microscopy with a Leica microscope at X10, X20 and X40. Specificity was verified by the absence of any staining in the negative controls. In some experiments, cells were counted to determine the ratio of cells within the global population.
For immunostaining, hES-3 cells were coated on chamber slides after mechanical dissociation, in order to obtain a monolayer culture. The day following the plating, cells were incubated with the different agents in a media depleted in serum. Media was changed the 2nd day and the cells were fixed 4 days after the first treatment.
Cells were washed in PBS, fixed with MeOH, and immunostaining was performed, using the specific stem cell marker antibody GCTM-2, and the specific cell proliferation marker PCNA. Cells were then washed and the nucleuses were stained with Hoechst-33342 (1 μg/ml). Slides were mounted and then observed by fluorescent microscopy. Cells were then counted in order to determine the ratio of proliferating stem cells within the overall population.

ERK1/2 (Erk1 and Erk2) = assay: ERKs phosphorylation in hES cells (Western blot, anti-active MAP kinase); type: cell-based, human; conditions: for phosphorylation of ERKs in hES cells: 5 min incubation, LPA, PDGF 20 ng/ml, serum-depleted, without MEF
Description: hES-3 cells plated without MEF for 24 hrs were depleted of serum for a further 18 hrs. Cells pre-treated or not with U0126 (Sigma, 30 μM, 1 hr), were incubated in the presence of the different agents for 5 min and were lysed by removal of the supernatants and addition of a reducing loading buffer containing 1 mM sodium orthovanadate (Sigma). Protein lysates (approx. 80 μg) were separated by SDS-polyacrylamide gel electrophoresis (10% polyacrylamide, w/v), transferred to nitrocellulose (Hybond-nitrocellulose, Amersham) and immunoblotting was carried out using rabbit polyclonal anti-active mitogen-activated protein (MAPK) antibodies raised against a dually phosphorylated MAPK peptide (Promega, Madison, Wis., USA). Peroxidase-coupled secondary antibody (Dako) was detected by exposure of autoradiographic films in the presence of a chemiluminescent detection reagent (ECL, Amersham). Stripping of antibodies was achieved and membranes were then reprobed with rabbit polyclonal anti-ERK1/2 antibodies (Promega), and then with peroxidase-coupled secondary antibodies (Dako). Membranes probed with either rabbit polyclonal anti-active p38 (Promega) or rabbit polyclonal anti-active JNK (Promega) antibodies were also performed, using the same procedure as described
For immunoblot analysis, cells were transferred into 24 well plates (8 colonies per well) without MEFs, and 24 hr later, were grown in the absence of serum for 18 hrs.
In some experiments, cells were pre-treated for 1 hr with U0126 (30 μM) or for 18 hrs with PTX (100 μg/ml).
hES3 cells were lysed following removal of the supernatants by addition of a reducing loading buffer (2% SDS, 62.5 mM Tris pH 6.8, 0.1 M DTT, 0.01% bromophenol blue) containing 1 mM sodium orthovanadate. Samples were boiled for 10 min and centrifuged at 13000 g for 15 min, and protein lysates (approx. 80 μg) were separated by SDS-polyacrylamide gel electrophoresis (10% polyacrylamide, w/v). Proteins were transferred to nitrocellulose (Hybond-ECL, Amersham) and immunoblotting was carried out with rabbit polyclonal anti-active mitogen-activated protein (MAPK) antibodies raised against a dually phosphorylated MAPK peptide (Promega, Madison, Wis., USA). Peroxidase-coupled secondary antibody (Dako) was detected by exposure of autoradiographic films in the presence of a chemiluminescent detection reagent (ECL, Amersham). Stripping of antibodies was achieved by incubating the membrane during 30 min at 50° C. in a buffer containing 100 mM mercaptoethanol, 2% SDS, 62.5 mM Tris-HCl pH 6.7. The membrane was then reprobing with rabbit polyclonal anti-ERK1/2 antibodies (Promega), and then with peroxidase-coupled secondary antibodies (Dako).

SPK in MEF = assay: Sphingosine kinase activity in MEF after incubation with PDGF; type: cell-based, mouse; conditions: PDGF 20 ng/ml
[4] = system: SPK activity in hES cells; assay: Sphingosine kinase activity in hES cells after incubation with PDGF; type: cell-based, human; conditions: PDGF 20 ng/ml
Description: hES-3 cells plated without MEF for 24 hr and depleted of serum for a further 18 hr were incubated in the presence of PDGF (20 ng/ml) for various time periods and were harvested and lysed by sonication (2 W for 30 s at 4° C.) in lysis buffer containing 50 mM Tris/HCl (pH 7.4), 10% glycerol, 0.05% Triton X-100, 150 mM NaCl, 1 mM dithiothreitol, 2 mM Na3VO4, 10 mM NaF, 1 mM EDTA and protease inhibitors (Complete™, Roche, Mannheim, Germany). SPK activity was determined using D-erythro-sphingosine and […] as substrates, as previously described^19. Protein concentrations in cell homogenates were determined with Coomassie Brilliant Blue reagent (Bio-Rad, Regent Park, NSW, Australia) using bovine serum albumin as standard.

[5] = Example 4, on MEFs, serum-depleted, S1P 10 μM
[6] = Example 1, 4 days, no MEF, no serum, S1P 10 μM
[7] = Example 1, 4 days, no MEF, no serum

In the case of `CCCCCCCCCCCCC/C=C/[C@@H](O)[C@H](CO)N(C)C` [DMS, dimethylsphingosine], the “effect of inhibitor on the effect of PDGF and S1P on GCTM2 expression” value (hES cells [1]) is reported as “inhibited the effect of PDGF and S1P”.

With `CCCCCCCCCCCCC/C=C/[C@@H](O)[C@@H](N)COP(=O)(O)O` [S1P, sphingosine-1-phosphate] the “colony morphology / spontaneous differentiation vs control” value (hES cells [2]; 8 days, S1P 10 μM) was “the colonies appeared flatter and less differentiated”, the “colony size, morphology / spontaneous differentiation vs controls” value (hES cells [2]; S1P 10 μM) was “the colonies appeared flatter and less differentiated” and the “colony morphology / differentiation vs control condition” value (hES cells [2]; Example 4, on MEFs, serum-depleted, 8 days, S1P 10 μM) was “the colonies were more compact and less differentiated”. The “colony growth / differentiation vs control” value (hES cells [2]; [5]) was “more obvious after 12 days of treatment”, the “effect on cell differentiation, hES cells grown without MEFs” value (hES cells [2]; Example 4) was “inhibitory effect” and the “percentage of cells GCTM2+” value (hES cells [3]; [6]) was 47.9±3.8%. For the same molecule, the “proliferating rate of hES cells (PCNA) vs control” value (“proliferating rate … vs control” below) (hES cells [3]; [7]) was “no statistically significant difference”, the “proliferating rate … vs control” value (hES cells [3]; Example 4, 4 days without serum, S1P 10 μM) was “no marked difference” and the “cells GCTM-2 positive” value (hES cells [3]; Example 4, 4 days without serum, S1P 10 μM (control 16%)) was 68%. The “more GCMT2+ than the control cells” value (hES cells [1]; PDGF 20 ng/ml) was 16.6±4.1%, the “more GCMT2+ than the controls” value (hES cells [1]; Example 2) was 18.0±17.0% and the “concentration dependence of ERKs stimulation” value (ERK1/2 (Erk1 and Erk2); 5 min, various concentrations of S1P) was “in a concentration dependant manner”. For the same molecule, the “phosphorylation of ERKs in hES cells” value (ERK1/2 (Erk1 and Erk2); S1P 10 μM) was “stimulated the phosphorylation of ERKs” and the “duration of ERKs stimulation” value (ERK1/2 (Erk1 and Erk2); S1P 10 μM) was “at least 60 min”.

In the case of `N#CC(=C(/N)Sc1ccccc1N)/C(C#N)=C(\N)Sc1ccccc1N` [U0126], the “effect of inhibitor on the effect of PDGF and S1P on GCTM2 expression” value (hES cells [1]) is reported as “totally inhibited” and the “effect of MEK inhibitor on agonist-stimulated phosphorylation of ERKs” value (ERK1/2 (Erk1 and Erk2); U0126 30 μM, 1 hr pre-treatment) is reported as “totally inhibited”.

For `CCCCCCCCCCCCCCC[C@@H](O)[C@@H](N)COP(=O)(O)O` [dihydro-S1P, dihydrosphingosine-1-phosphate], the GCTM2 expression (hES cells [1]; Example 2, 2 weeks, dihydro-S1P, PDGF 20 ng/ml) was 223.0±27.0 % of control.

In the case of “PDGF-AA: Human platelet-derived growth factor isoform AA; only binds to PDGFR-a”, the “GCTM2 levels, PDGF isoform added with S1P” value (hES cells [1]) is reported as 120.5±4.5 % of control and the “GCTM2 expression, PDGF isoform with S1P” value (hES cells [1]; Example 2, 2 weeks, isoform 20 ng/ml together with S1P) is reported as 220.3±49.0 % of control.

In the case of “PDGF: Human platelet-derived growth factor, isoform AB, from PreproTech; ligand of class III tyrosine kinase receptor”, the “colony morphology / spontaneous differentiation vs control” value (hES cells [2]; 8 days, S1P 10 μM) is reported as “the colonies appeared flatter and less differentiated”, the “colony size, morphology / spontaneous differentiation vs controls” value (hES cells [2]; S1P 10 μM) is reported as “the colonies appeared flatter and less differentiated” and the “percentage of cells GCTM2+” value (hES cells [3]; [6]) is reported as 53.7±13.2%. The “proliferating rate … vs control” value (hES cells [3]; [7]) was “no statistically significant difference”, the “GCTM2 levels, PDGF isoform added with S1P” value (hES cells [1]) was 125.7±9.7 % of control and the “more GCMT2+ than the control cells” value (hES cells [1]; PDGF 20 ng/ml) was 16.6±7.0%. The “more GCMT2+ than the controls” value (hES cells [1]; Example 2) was 50.3±18.4%, the “activation of SPK in MEF” value (SPK in MEF) was “did not induce a significant statistical activation of SPK” and the “duration of enhanced SPK activity” value [4] was “at least 60 min”. The “SPK activity relative to basal values” ([4]; after 30 min of incubation) was 1.6 fold and the “phosphorylation of ERKs in hES cells” value (ERK1/2 (Erk1 and Erk2); S1P 10 μM) was “stimulated the phosphorylation of ERKs”.

In the case of lysophosphatidic acid [LPA], the “colony morphology / spontaneous differentiation vs control” value (hES cells [2]; 8 days, S1P 10 μM) is reported as “did not have an obvious effect on growth of the colonies”, the “colony size, morphology / spontaneous differentiation vs controls” value (hES cells [2]; S1P 10 μM) is reported as “no obvious effect on size or morphology of hES cell colonies” and the “colony growth / differentiation vs control” value (hES cells [2]; [5]) is reported as “did not seem to affect the growth of the colonies”. The “effect on cell differentiation, hES cells grown without MEFs” value (hES cells [2]; Example 4) was “lack of effect” and the “phosphorylation of ERKs in hES cells” value (ERK1/2 (Erk1 and Erk2); S1P 10 μM) was “stimulated the phosphorylation of ERKs”.
